Assay results published in PubChem BioAssay AID720495 (Broad Institute, 2013).
Several values for one entry are separate records, joined by “and”; a condition that tells them apart may be missing. Equal entries are not always repeated. Inconclusive results are not listed. Activity calls are given as the source filed them. The rule behind the calls is not given here.

What follows are compounds tested against Protein AF-9 (Homo sapiens) (UniProt P42568) (assay: inhibitors of AF4-AF9 protein interaction, dose response, biochemical, cherry-picked samples, plate reader (AID 720495)). Conditions: biochemical protein-protein interaction assay.
Chain of Protein AF-9 (Homo sapiens) (P42568 whole entry, looked up): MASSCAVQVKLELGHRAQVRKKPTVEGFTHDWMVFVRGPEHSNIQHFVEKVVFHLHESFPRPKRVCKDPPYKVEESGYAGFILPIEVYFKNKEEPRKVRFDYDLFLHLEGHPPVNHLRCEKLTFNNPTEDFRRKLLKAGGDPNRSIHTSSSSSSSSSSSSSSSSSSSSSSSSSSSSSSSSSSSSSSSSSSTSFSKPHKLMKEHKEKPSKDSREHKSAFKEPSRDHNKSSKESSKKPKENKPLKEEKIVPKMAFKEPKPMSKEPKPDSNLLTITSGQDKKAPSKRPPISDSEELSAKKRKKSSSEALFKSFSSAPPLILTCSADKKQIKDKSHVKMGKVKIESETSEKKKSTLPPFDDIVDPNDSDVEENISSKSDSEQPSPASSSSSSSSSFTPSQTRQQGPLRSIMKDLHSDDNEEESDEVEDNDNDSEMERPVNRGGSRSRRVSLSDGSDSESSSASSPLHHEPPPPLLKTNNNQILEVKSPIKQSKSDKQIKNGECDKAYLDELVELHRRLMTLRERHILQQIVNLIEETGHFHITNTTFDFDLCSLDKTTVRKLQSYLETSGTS
Work on `N=C1C=CC(=C(c2ccc(N)cc2)c2ccc(N)cc2)C=C1` yielded an AC50 of 6.08 µM. With `CN(C)c1ccc(CNCCC(Cc2ccccc2)c2ccco2)cc1` (stereo unspecified) the AC50 was 5.44 µM. In the case of `COc1ccc(NC2=C(NCCO)C(=O)c3ccccc3C2=O)cc1`, the AC50 was 4.37 µM. `COc1ccc2nc3ccccc3nc2c1N` was tested, and the AC50 was 3.44 µM. For `CCCC(=O)NC(c1ccc(OC)cc1)c1ccc2cccnc2c1O` (stereo unspecified), the AC50 was 0.865 µM. `COc1ccc2c(c1)c(=Cc1ccc(N(C)C)cc1)c1cc(-c3ccccc3)[n+](C)n12` showed an AC50 of 2.49 µM. For `O=C(N/N=C/c1c(O)ccc2ccccc12)c1ccc[n+](CCO)c1`, the AC50 was 0.257 µM. In the case of `C[C@H](CO)N1C[C@H](C)[C@@H](CN(C)Cc2ccc(Oc3ccccc3)cc2)Oc2ccc(N(C)C)cc2C1=O`, the AC50 was 10.7 µM. In the case of `CC1C(=NO)C(C)C(c2ccc(N(C)C)cc2)NC1c1ccc(N(C)C)cc1` (stereo unspecified), the AC50 was 10.4 µM. With `CN(C)c1ccc(/C=C2/C[N+](C)(C)C/C(=C/c3ccc(N(C)C)cc3)C2=O)cc1` the AC50 was 2.81 µM. In the case of `C#CCOCCOCCOCCNc1nc(N2CCN(C(=O)[C@H](CCCCN)n3cc([C@@H](N)C(C)CC)nn3)CC2)nc(N2CCN(C(=O)[C@H](CCCCN)n3cc([C@@H](N)CC(C)C)nn3)CC2)n1` (stereo partly specified), the AC50 was 0.702 µM. With `CCN(CC)CCOc1ccc(/C(=C(/Cl)c2ccccc2)c2ccccc2)cc1` the AC50 was 0.529 µM. For `CC(C)Nc1ccc(Nc2ccnc3cc4ccccc4cc23)cc1`, the AC50 was 2.45 µM. Work on `COc1cccc(CNCCc2c[nH]c3ccccc23)c1OCc1ccccc1` yielded an AC50 of 11.5 µM. Work on `Oc1cc(-c2ccncc2)cc2cccnc12` yielded an AC50 of 3.01 µM. Work on `CCC[C@@H](CN1CCC[C@H]1CN1C(N)=NC[C@@H]1Cc1ccccc1)N1C[C@@H](Cc2ccccc2)N(CCc2ccc(Cl)c(Cl)c2)C1=N` yielded an AC50 of 5.41 µM. For `C#CCOCCOCCOCCNc1nc(N2CCN(C(=O)[C@H](CCCCN)n3cc(CCCC)nn3)CC2)nc(N2CCN(C(=O)[C@H](CCCCN)n3cc(CCCC)nn3)CC2)n1`, the AC50 was 11.3 µM. `CC(=NNC(=S)N1CCN(C2CCCCCC2)CC1)c1ccccn1` was tested, and the AC50 was 0.687 µM. `CN1CCN(/N=C/c2ccc(-c3ccc([N+](=O)[O-])cc3Cl)o2)CC1` gave an AC50 of 9.35 µM. `COC1=C(Nc2ccccc2OC)C(=O)c2ccccc2C1=O` was tested, and the AC50 was 3.9 µM. For `CCN(CCCl)c1cc(CN(C)C)cc(NC(=O)c2ccc(C(=O)Nc3cc(CN(C)C)cc(N(CC)CCCl)c3)cc2)c1`, the AC50 was 0.683 µM. With `CN(C)c1ccc(C=c2c3ccccc3n3c2c2ccccc2[n+]3C)cc1` the AC50 was 1.65 µM. `Cc1ccc2nc(-c3ccc(NC(=S)NC4CC(C)(C)NC(C)(C)C4)cc3)sc2c1` showed an AC50 of 7.34 µM. In the case of `NC(N)=NCCCS(=O)(=O)Nc1ccc(Nc2c3ccccc3nc3cc([N+](=O)[O-])ccc23)cc1`, the AC50 was 2.85 µM. In the case of `COc1cc(O)c(C(CCN2CCCCC2)c2ccc(N(C)C)cc2)c(OC)c1` (stereo unspecified), the AC50 was 10.2 µM. Work on `CC1(C)CC(Nc2ccc(Nc3ccccc3)cc2)CC(C)(C)N1` yielded an AC50 of 6.78 µM. `CN(C)c1ccc(/C=C/C=C/c2sc3ccccc3[n+]2C)cc1` showed an AC50 of 2.09 µM. `CSc1ccc2c(c1)N(CCC1CCCCN1C)c1ccccc1S2` (stereo unspecified) gave an AC50 of 6.31 µM. `COc1ccccc1N(C(C)=O)C1=C(Cl)C(=O)c2ccccc2C1=O` gave an AC50 of 7.96 µM. `CN(C)CCCNC(=O)c1ccc(-c2cc(O)c3ncccc3c2)cc1` showed an AC50 of 0.693 µM. `CN(C)CCCNC(=S)NCC(c1ccc(Cl)cc1Cl)c1c[nH]c2ccccc12` (stereo unspecified) gave an AC50 of 10.7 µM. `O=C1c2ccccc2NC(c2cccc([N+](=O)[O-])c2)N1O` (stereo unspecified) showed an AC50 of 11.2 µM. In the case of `C[n+]1c(-c2ccccc2)c2cc(N)ccc2c2ccc(N)cc21`, the AC50 was 9.5 µM. In the case of `CCN(CC)c1ccc(/C=C/c2ccc3ccc(OC)cc3[n+]2CC)cc1`, the AC50 was 2.36 µM. Compound `CN[C@H]1C[C@H]2c3[nH]c4ccc(-c5cccc(C)c5)cc4c3CCN2C[C@H]1[C@H](C)O` has an AC50 of 6.97 µM. In the case of `O=C1c2c(O)ccc(O)c2C(=O)c2c(NCCNCCO)ccc(NCCNCCO)c21`, the AC50 was 0.15 µM and 0.374 µM. `CCN(CC)c1ccc(CNc2ccc3c(c2)ncn3C(C)(C)C)cc1` was tested, and the AC50 was 3.48 µM. With `CC(=O)OCCNc1cc(N2CCN(C)CC2)c2noc3c2c1C(=O)c1ccccc1-3` the AC50 was 1.94 µM. `COc1cc(C2CC(=O)Oc3c(C(CCN4CCOCC4)c4ccc(N(C)C)cc4)c(OC)cc(OC)c32)cc(OC)c1OC` (stereo unspecified) gave an AC50 of 1.55 µM.

Same assay, conditions: biochemical protein-protein interaction assay, at 10 µM (top of the series)
In the case of `Cc1nn(-c2ccccc2)c(Cl)c1/C=C1\C(=O)N(C)C(=S)N1C`, the “activity change, negative = inhibition” value was “inactive”. `Cc1cccc(-c2ccc3[nH]c4c(c3c2)CCN2C[C@H]3[C@H](C)ON(C)[C@H]3C[C@@H]42)c1` was tested, and the “activity change, negative = inhibition” value was “inactive”. With `CCn1c(C)c(C(C)=O)c(N2CCN(c3ccc(OC)cc3)CC2)nc1=S` the “activity change, negative = inhibition” value was “inactive”. With `C[C@H](CO)N1C[C@H](C)[C@H](CN(C)CC2CC2)OCCCC[C@H](C)Oc2ccc(NC(=O)Nc3ccc4c(c3)OCO4)cc2C1=O` the “activity change, negative = inhibition” value was “inactive”. With `COc1ccccc1N1CCN(/N=C\c2sccc2C)CC1` the “activity change, negative = inhibition” value was “inactive”. With `Cc1ccc(-c2cc(-c3ccc(C)cc3)[n+](-c3ccc(C(=O)[O-])cc3)c(-c3ccc(C)cc3)c2)cc1` the “activity change, negative = inhibition” value was “inactive”. `CCN(CC)c1ccc(N=Cc2cc(Br)ccc2O)cc1` was tested, and the “activity change, negative = inhibition” value was “inactive”. With `c1cc2c3c(cccc3c1)NC(c1ccc3c(c1)OCO3)N2` the “activity change, negative = inhibition” value was “inactive”. `CC#C[C@]1(O)CC[C@H]2[C@@H]3CCC4=CC(=O)CCC4=C3[C@@H](c3ccc(N(C)C)cc3)C[C@@]21C` was tested, and the “activity change, negative = inhibition” value was “inactive”. With `COc1ccc(-n2cc(CNCCc3cnc[nH]3)c(-c3cccc(F)c3)n2)cc1` the “activity change, negative = inhibition” value was “inactive”. In the case of `COc1ccc(CCNCc2cc(C)n(-c3ccc(OC)cc3)c2C)cc1`, the “activity change, negative = inhibition” value was “inactive”. In the case of `COc1ccccc1N1CCN(/N=C/c2cccc(Cl)c2)CC1`, the “activity change, negative = inhibition” value was “inactive”. For `CCOc1ccc(Nc2ccc([N+](=O)[O-])c3nonc23)cc1`, the “activity change, negative = inhibition” value was “inactive”. For `CCN1CCCc2cc(CN(CCN3CCOCC3)C(=S)Nc3cccc(C)c3)ccc21`, the “activity change, negative = inhibition” value was “inactive”. With `Cc1cc(/C=N/n2c(COc3ccccc3C)nc3ccccc3c2=O)c(O)c([N+](=O)[O-])c1` the “activity change, negative = inhibition” value was “inactive”. With `O=C(NCCCN1CCCC1=O)C1CCN(S(=O)(=O)c2cccc(C(F)(F)F)c2)CC1` the “activity change, negative = inhibition” value was “inactive”. For `CCc1ccc(OCCNc2cc(N3CCNC(C)C3)ccc2[N+](=O)[O-])cc1` (stereo unspecified), the “activity change, negative = inhibition” value was “inactive”. In the case of `Cc1cc2c(cc1C)N[C@]1(C[C@H]3CCCC(=O)N4CC[C@@H](C1)[C@@H]34)C(=NC(C)(C)CC(C)(C)C)N2`, the “activity change, negative = inhibition” value was “inactive”. `COC(=O)C1=CC(C(=O)c2cccs2)=NN(c2ccc(OC)cc2)C1C(=O)OC` (stereo unspecified) was tested, and the “activity change, negative = inhibition” value was “inactive”. For `O=C(O)CCNc1ccc(NCCC(=O)O)c2c1C(=O)c1ccccc1C2=O`, the “activity change, negative = inhibition” value was “inactive”. With `CC(C)C1CC(CCNCc2ccc(N(C)C)cc2)(c2ccccc2)CCO1` (stereo unspecified) the “activity change, negative = inhibition” value was “inactive”. `CN(C)CCCN1c2ccccc2Sc2ccc(Cl)cc21` was tested, and the “activity change, negative = inhibition” value was “inactive”. `CN(C)c1ccc(NC2=C(Cl)C(=O)c3ccccc3C2=O)cc1` was tested, and the “activity change, negative = inhibition” value was “inactive”. With `O=c1c2ccccc2nc(/C=C/c2cccnc2)n1Cc1ccccc1` the “activity change, negative = inhibition” value was “inactive”. With `C(=C\c1ccncc1)/c1ccncc1` the “activity change, negative = inhibition” value was “inactive”. `C(=C\c1ccc2ccccc2n1)/c1ccccc1` was tested, and the “activity change, negative = inhibition” value was “inactive”. In the case of `Oc1cc2c(cc1O)C1c3ccc(O)c(O)c3OCC1(O)C2` (stereo unspecified), the “activity change, negative = inhibition” value was “inactive”. With `CCOc1ccc(NC(=S)N(CCN2CCOCC2)Cc2ccc3c(c2)CCCN3CC)cc1` the “activity change, negative = inhibition” value was “inactive”. In the case of `CC(=O)Nc1ccc(S(=O)(=O)NC2=C(N3CCN(Cc4ccccc4)CC3)C(=O)c3ccccc3C2=O)cc1`, the “activity change, negative = inhibition” value was “inactive”. For `Nc1[nH]n(-c2ccccc2)c(=O)c1N=Nc1ccc2c(c1)OCCO2`, the “activity change, negative = inhibition” value was “inactive”. With `Fc1ccc(C(c2ccc(F)cc2)N2CCN(C/C=C/c3ccccc3)CC2)cc1` the “activity change, negative = inhibition” value was “inactive”. For `COc1ccc(N2CCN(C3CCCN(S(=O)(=O)c4ccc(C)cc4C)C3)CC2)cc1` (stereo unspecified), the “activity change, negative = inhibition” value was “inactive”. With `COc1ccc(C)cc1Nc1n[n+](-c2ccccc2)c(-c2c(Cl)cccc2Cl)s1` the “activity change, negative = inhibition” value was “inactive”. In the case of `Oc1c(C(c2ccc(Cl)cc2)N2CCCC2)cc(Cl)c2cccnc12` (stereo unspecified), the “activity change, negative = inhibition” value was “inactive”. With `Oc1ccccc1C=NCCCCCCN=Cc1ccccc1O` the “activity change, negative = inhibition” value was “inactive”. `O=C(NCCc1cccc(F)c1)C1CCCN(c2nc3ccccc3s2)C1` (stereo unspecified) was tested, and the “activity change, negative = inhibition” value was “inactive”. `O=C(Cc1cccnc1)N1CC(=O)N2[C@H](C1)[C@H](c1ccc(C3=CCCC3)cc1)[C@@H]2CO` was tested, and the “activity change, negative = inhibition” value was “inactive”. With `Cc1ccsc1/C=N/N1CCN(Cc2ccccc2)CC1` the “activity change, negative = inhibition” value was “inactive”. `Cc1cc2c(=Cc3ccc(N(C)C)cc3)c3ccccc3n2[n+]1C` was tested, and the “activity change, negative = inhibition” value was “inactive”. With `COc1ccc(N=C2S/C(=C\c3ccc(Cl)c([N+](=O)[O-])c3)C(=O)N2CCN(C)C)cc1` the “activity change, negative = inhibition” value was “inactive”. `Cc1c(C)n(Cc2ccc(Cl)cc2)c2ccc(C(=O)NCCCN3CCOCC3)cc12` was tested, and the “activity change, negative = inhibition” value was “inactive”. With `Cn1ccc2c(/C=C/c3ccc(F)cc3)cc3c(c21)C1CCC3C1` (stereo unspecified) the “activity change, negative = inhibition” value was “inactive”.
